This note sets out measurements from patent US20260103465A1, “GLYCOGEN SYNTHASE KINASE 3 INHIBITORS AND USES THEREOF” (The Broad Institute, Inc., priority 2023, published 2026).

The target of assay [1] is T1, GSK3b (GST-full length GSK3b) (Homo sapiens, UniProt P49841).
T1 construct: GST-full length GSK3b: [SignalChem G08-9G]; purchased SignalChem G08-9G
Put plainly: GSK3b TR-FRET kinase inhibition assay. In kind it is biochemical. As to conditions: 1 mM ATP; Table 5; read-out: GSK3β TR-FRET 1 mM ATP Average IC50. As to the method:
(§1) TR-FRET assay was performed in a white, 384 well, low volume, flat bottom plate (Grenier). After a 30 minute preincubation in assay buffer with the indicated concentration of compound, the kinase activity was initiated by the addition of the substrates. 1 nM GSK3a (GST-full length GSK3a [SignalChem G08-10G]) or 1 nM GSK3b (GST-full length GSK3b: [SignalChem G08-9G]) were then incubated at ambient temperature for 100 minutes in 10 μl of 50 mM Tris, pH 7.5, 20 mM MgCl2, 0.05 mM DTT, 100 μg/ml BSA and 1% DMSO, with 200 nM biotinylated peptide substrate (biotinylated and S645 phosphorylated glycogen synthase 631-650) and ATP (e.g., at 2 μM, 4 μM, 10 μM, 100 μM, or 1 mM). The kinase activity was quenched with 2 μl of 250 mM EDTA. A 10 μl volume of 40 nM Strepavidin-d2, 2 nM […] antibody in TR-FRET Detection Buffer (Invitrogen) was then added. After 60 min at room temperature the plate was read on Envision plate reader using Ex: 340 nm, Em: 615 nm and […]. The normalized 665/615 Signal ratio versus log compound concentration was analyzed by XLFIT to yield IC50 values.
Background: In TR-FRET formats the signal depends on donor and acceptor labels being close together.

For assay [2], the target named is T2, GSK3a (GST-full length GSK3a) (Homo sapiens, UniProt P49840).
T2 construct: GST-full length GSK3a [SignalChem G08-10G]; purchased SignalChem G08-10G
T2 sequence (P49840 whole entry): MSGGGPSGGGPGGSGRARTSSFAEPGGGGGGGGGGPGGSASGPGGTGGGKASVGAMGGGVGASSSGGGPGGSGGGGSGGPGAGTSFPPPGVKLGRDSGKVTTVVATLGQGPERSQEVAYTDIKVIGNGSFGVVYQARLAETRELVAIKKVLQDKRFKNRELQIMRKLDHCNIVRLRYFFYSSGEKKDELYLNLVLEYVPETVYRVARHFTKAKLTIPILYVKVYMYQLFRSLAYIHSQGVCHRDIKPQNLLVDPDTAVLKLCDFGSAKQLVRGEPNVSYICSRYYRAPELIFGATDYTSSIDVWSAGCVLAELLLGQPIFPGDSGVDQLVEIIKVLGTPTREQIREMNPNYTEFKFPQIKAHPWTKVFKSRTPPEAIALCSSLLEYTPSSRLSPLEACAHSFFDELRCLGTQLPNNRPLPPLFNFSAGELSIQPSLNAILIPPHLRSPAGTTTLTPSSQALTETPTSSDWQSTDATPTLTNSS
Nature of the assay: GSK3a TR-FRET kinase inhibition assay. In kind it is biochemical. As to conditions: 1 mM ATP; Table 5; read-out: GSK3α TR-FRET 1 mM ATP Average IC50. As to the method:
as §1

Where only a bound is given, the exact number is not on record here.

T1 sequence (P49841 whole entry): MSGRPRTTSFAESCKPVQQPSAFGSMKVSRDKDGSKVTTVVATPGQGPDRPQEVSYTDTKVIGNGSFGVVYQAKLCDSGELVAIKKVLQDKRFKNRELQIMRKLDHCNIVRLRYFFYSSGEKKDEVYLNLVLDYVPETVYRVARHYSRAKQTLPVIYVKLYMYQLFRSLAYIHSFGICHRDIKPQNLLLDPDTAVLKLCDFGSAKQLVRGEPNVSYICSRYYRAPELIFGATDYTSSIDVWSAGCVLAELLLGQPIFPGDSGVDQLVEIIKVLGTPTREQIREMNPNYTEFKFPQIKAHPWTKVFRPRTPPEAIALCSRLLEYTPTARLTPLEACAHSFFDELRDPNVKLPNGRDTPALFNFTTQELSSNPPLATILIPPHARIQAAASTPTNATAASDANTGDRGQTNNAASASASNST

Consider `CC1(C)CC2=C(C(=O)N1)C(C)(c1ccccc1)c1c(ncc(C(F)F)c1C#N)N2` (single isomer, unassigned) [628A], for which the IC50 in assay [1] and in assay [2] was 1 to 5 µM in each case.

With `CC1(C)CC2=C(C(=O)N1)C(C)(c1ccccc1)c1c(ncc(C(F)F)c1C#N)N2` (single isomer, unassigned) [628B], the half-maximal inhibitory concentration (IC50) (usually the concentration that gives 50% inhibition) in assay [1] was in the range of 0.1 to 1 µM; in assay [2] it was 1 to 5 µM.

On to `CC(C)Oc1cccc(C2(C)C3=C(CC(C)(C)CC3=O)Nc3ncc(F)cc32)c1` (single isomer, unassigned) [629B], for which the IC50 in assay [1] and in assay [2] was 0.1 to 1 µM throughout.

`CC1(C)CC2=C(C(=O)N1)C(C)(c1cccc(S(C)(=O)=O)c1)c1cccnc1N2` (single isomer, unassigned) [630A]: the IC50 was 0.1 to 1 µM in assay [1] and ≤ 0.1 µM in assay [2].

For `CC1(C)CC(=O)C2=C(C1)Nc1ncc(C(C)(F)F)c(C#N)c1C2(C)c1ccccc1` (single isomer, unassigned) [631A], the 50% inhibitory concentration (IC50) in assay [1] and in assay [2] was 5 to 20 µM each time.

For `CC1(C)CC(=O)C2=C(C1)Nc1ncc(C(C)(F)F)c(C#N)c1C2(C)c1ccccc1` (single isomer, unassigned) [631B], the half-inhibitory concentration (IC50) in assay [1] and in assay [2] was 5 to 20 µM each time.

For `CN1C(=O)C2=C(CC1(C)C)Nc1ncc(C(F)F)c(C#N)c1C2(C)c1ccccc1` (single isomer, unassigned) [632A], the IC50 in assay [1] lay in the range of 0.1 to 1 µM; in assay [2], 1 to 5 µM.

`CN1C(=O)C2=C(CC1(C)C)Nc1ncc(C(F)F)c(C#N)c1C2(C)c1ccccc1` (single isomer, unassigned) [632B]: the 50% inhibitory concentration (IC50) in assay [1] and in assay [2] was 0.1 to 1 µM in each case.

In the case of `CC1(C)CC(=O)C2=C(C1)Nc1ncc(F)c(C#N)c1C2(C)c1cccc(C(F)F)c1` (single isomer, unassigned) [634A], the IC50 in assay [1] and in assay [2] was 5 to 20 µM in each case.

As to `CC1(C)CC(=O)C2=C(C1)Nc1ncc(F)c(C#N)c1C2(C)c1cccc(C(F)F)c1` (single isomer, unassigned) [634B], the IC50 in assay [1] and in assay [2] was ≤ 0.1 µM in each case.

With `CC1(C)CC(=O)C2=C(C1)Nc1ncc(C3CCCC3)c(C#N)c1C2(C)c1ccccc1` (single isomer, unassigned) [635A], the IC50 in assay [1] and in assay [2] was 5 to 20 µM in each case.

Turning to `C=Cc1c(C(F)(F)F)cnc2c1C(C)(c1ccccc1)C1=C(CC(C)(C)CC1=O)N2` (single isomer, unassigned) [636A], the IC50 in assay [1] was 0.1 to 1 µM; in assay [2], 1 to 5 µM.

As to `C=Cc1c(C(F)(F)F)cnc2c1C(C)(c1ccccc1)C1=C(CC(C)(C)CC1=O)N2` (single isomer, unassigned) [636B], the values for the IC50 in assay [1] and in assay [2] were 1 to 5 µM and 5 to 20 µM, respectively.

On to `CC1(C)CC2=C(C(=O)N1)C(C)(c1cccc(S(C)(=O)=O)c1)c1cc(F)cnc1N2` (single isomer, unassigned) [638A], for which the concentration for half-maximal inhibition (IC50) in assay [1] is 0.1 to 1 µM; in assay [2], ≤ 0.1 µM.

In the case of `CC1(C)CC2=C(C(=O)N1)C(C)(c1cccc(S(C)(=O)=O)c1)c1cc(F)cnc1N2` (single isomer, unassigned) [638B], the IC50 in assay [1] and in assay [2] was 5 to 20 µM each time.

`CC(C)Oc1cccc(C2(C)C3=C(CC(C)(C)CC3=O)Nc3ncc(F)c(C#N)c32)c1` (single isomer, unassigned) [639A]: the IC50 in assay [1] and in assay [2] was 5 to 20 µM throughout.

`CC(C)Oc1cccc(C2(C)C3=C(CC(C)(C)CC3=O)Nc3ncc(F)c(C#N)c32)c1` (single isomer, unassigned) [639B]: the IC50 in assay [1] and in assay [2] was ≤ 0.1 µM each time.

`C=Cc1cnc2c(c1Br)C(C)(c1ccccc1)C1=C(CC(C)(C)CC1=O)N2` (single isomer, unassigned) [640B]: the IC50 in assay [1] and in assay [2] was 5 to 20 µM throughout.

With `CN(c1cccc(C2(C)C3=C(CC(C)(C)CC3=O)Nc3ncccc32)c1)c1ncccn1` (single isomer, unassigned) [641B], the IC50 in assay [1] and in assay [2] was 1 to 5 µM throughout.

On to `CC1(C)CC(=O)C2=C(C1)Nc1ncc(C(F)(F)F)c(C3CC3)c1C2(C)c1ccccc1` (single isomer, unassigned) [642A], for which the 50% inhibitory concentration (IC50) in assay [1] was 1 to 5 µM; in assay [2] it was 5 to 20 µM.

Take `CC1(C)CC(=O)C2=C(C1)Nc1ncc(C(F)(F)F)c(C3CC3)c1C2(C)c1ccccc1` (single isomer, unassigned) [642B]: the IC50 in assay [1] and in assay [2] was 5 to 20 µM in each case.

For the molecule `Cc1c(C2(C)C3=C(CC(C)(C)CC3=O)Nc3ncc(F)cc32)cccc1S(C)(=O)=O` (single isomer, unassigned) [643A], the IC50 in assay [1] and in assay [2] was 0.1 to 1 µM in each case.

For the molecule `Cc1ccc(C2(C)C3=C(CC(C)(C)CC3=O)Nc3ncc(F)cc32)cc1S(C)(=O)=O` (single isomer, unassigned) [644A], the IC50 in assay [1] and in assay [2] was 0.1 to 1 µM each time.

With `CC(C)Oc1cccc(C2(C)C3=C(CC(C)(C)CC3=O)Nc3ncc4c(cnn4C)c32)c1` (single isomer, unassigned) [645A], the half-maximal inhibitory concentration (IC50) in assay [1] and in assay [2] was 5 to 20 µM each time.

With `CC(C)Oc1cccc(C2(C)C3=C(CC(C)(C)CC3=O)Nc3ncc4c(cnn4C)c32)c1` (single isomer, unassigned) [645B], the IC50 was 1 to 5 µM in assay [1] and 5 to 20 µM in assay [2].

In the case of `CC1(C)CC(=O)C2=C(C1)Nc1ncc(C(F)(F)F)cc1C2(C)c1cccc(C(F)F)c1` (single isomer, unassigned) [646A], the IC50 in assay [1] and in assay [2] was 5 to 20 µM each time.

Consider `CC1(C)CC(=O)C2=C(C1)Nc1ncc(C(F)(F)F)cc1C2(C)c1cccc(C(F)F)c1` (single isomer, unassigned) [646B], for which the figures for the IC50 in assay [1] and in assay [2] were 0.1 to 1 µM and 1 to 5 µM, respectively.

As for `CC1(C)CC2=C(C(=O)N1)C(C)(c1cccc(S(C)(=O)=O)c1)c1cc(C3CC3)cnc1N2` (single isomer, unassigned) [647A], the half-inhibitory concentration (IC50) in assay [1] and in assay [2] was 0.1 to 1 µM throughout.

Consider `CC1(C)CC2=C(C(=O)N1)C(C)(c1cccc(S(C)(=O)=O)c1)c1cc(C3CC3)cnc1N2` (single isomer, unassigned) [647B], for which the IC50 in assay [1] and in assay [2] was 5 to 20 µM in each case.

For `CC(C)Oc1cccc(C2(C)C3=C(CC(C)(C)CC3=O)Nc3ncc(C(F)(F)F)cc32)c1` (single isomer, unassigned) [648A], the IC50 fell in the range of 1 to 5 µM in assay [1] and 5 to 20 µM in assay [2].

`CC(C)Oc1cccc(C2(C)C3=C(CC(C)(C)CC3=O)Nc3ncc(C(F)(F)F)cc32)c1` (single isomer, unassigned) [648B]: the IC50 in assay [1] was in the range of 0.1 to 1 µM; in assay [2], 1 to 5 µM.

For `Cn1ncc2c3c(ncc21)NC1=C(C(=O)CC(C)(C)C1)C3(C)c1cccc(S(C)(=O)=O)c1` (single isomer, unassigned) [649A], the IC50 in assay [1] lay in the range of 1 to 5 µM; in assay [2], 5 to 20 µM.

For `Cn1ncc2c3c(ncc21)NC1=C(C(=O)CC(C)(C)C1)C3(C)c1cccc(S(C)(=O)=O)c1` (single isomer, unassigned) [649B], the IC50 in assay [1] and in assay [2] was 5 to 20 µM in each case.

As to `CC(C)Oc1cccc(C2(C)C3=C(CC(C)(C)CC3=O)Nc3ncc(C(F)F)c(C#N)c32)c1` (single isomer, unassigned) [650A], the half-maximal inhibitory concentration (IC50) in assay [1] is 1 to 5 µM; in assay [2] it was 5 to 20 µM.

As to `CC(C)Oc1cccc(C2(C)C3=C(CC(C)(C)CC3=O)Nc3ncc(C(F)F)c(C#N)c32)c1` (single isomer, unassigned) [650B], the half-maximal inhibitory concentration (IC50) in assay [1] and in assay [2] was 0.1 to 1 µM each time.

`CC1(C)CC2=C(C(=O)N1)C(C)(c1cccc(S(C)(=O)=O)c1)c1cc(C(F)(F)F)cnc1N2` (single isomer, unassigned) [651B]: the IC50 in assay [1] and in assay [2] was 0.1 to 1 µM in each case.

For the molecule `CC1(C)CC(=O)C2=C(C1)Nc1ncccc1C2(C)c1cccc(N(CC2CC2)c2ncccn2)c1` (single isomer, unassigned) [652A], the IC50 in assay [1] and in assay [2] was 5 to 20 µM throughout.

Regarding `CC1(C)CC(=O)C2=C(C1)Nc1ncccc1C2(C)c1cccc(N(CC2CC2)c2ncccn2)c1` (single isomer, unassigned) [652B], the figures for the IC50 in assay [1] and in assay [2] were 5 to 20 µM and ≤ 0.1 µM, respectively.

For the molecule `CC1(C)CC(=O)C2=C(C1)Nc1ncc(F)cc1C2(C)c1cccc(-c2ccncc2CC(F)(F)F)c1` (single isomer, unassigned) [653A], the IC50 in assay [1] and in assay [2] was 1 to 5 µM throughout.

`CC1(C)CC(=O)C2=C(C1)Nc1ncc(F)cc1C2(C)c1cccc(-c2ccncc2CC(F)(F)F)c1` (single isomer, unassigned) [653B]: the IC50 in assay [1] and in assay [2] was ≤ 0.1 µM in each case.

`CC1(C)CC(=O)C2=C(C1)Nc1ncc(F)c(C#N)c1C2(C)c1cccc(-c2ccncc2CC(F)(F)F)c1` (single isomer, unassigned) [656A]: the IC50 in assay [1] and in assay [2] was 0.1 to 1 µM in each case.
